Columns and labels:
[1] = in vitro; details: human
[2] = test system: human MT-2 T-cells; details: human

Compound | CC50 [1] | CC50 [2]
O=c1ccn(CCOc2ccccc2Oc2cccc3[nH]ccc23)c(=O)[nH]1 [8a, 1-(2-(2-((1H-indol-4-yl)oxy)phenoxy)ethyl)pyrimidine-2,4(1H,3H)-dione] | 53 µM | 
O=c1ccn(CCOc2cc(Cl)ccc2Oc2cccc3[nH]ccc23)c(=O)[nH]1 [8b, 1-(2-(2-((1H-indol-4-yl)oxy)-5-chlorophenoxy)ethyl)pyrimidine-2,4(1H,3H)-dione] | 18 µM | 
Cc1cc2c(Oc3ccccc3OCCn3ccc(=O)[nH]c3=O)cccc2[nH]1 [8c, 1-(2-(2-((2-methyl-1H-indol-4-yl)oxy)phenoxy)ethyl)pyrimidine-2,4(1H,3H)-dione] | 15 µM | 
N#Cc1cc2c(Oc3ccccc3OCCn3ccc(=O)[nH]c3=O)cccc2[nH]1 [8d, 4-(2-(2-(2,4-dioxo-3,4-dihydropyrimidin-1(2H)-yl)ethoxy)phenoxy)-1H-indole-2-carbonitrile] | 72 µM | 
Cc1cc(Oc2ccccc2OCCn2ccc(=O)[nH]c2=O)c2cc(C#N)[nH]c2c1 [8e, 4-(2-(2-(2,4-dioxo-3,4-dihydropyrimidin-1(2H)-yl)ethoxy)phenoxy)-6-methyl-1H-indole-2-carbonitrile] | 1.2 µM | 
N#Cc1cc2c(Oc3ccccc3OCCn3ccc(=O)[nH]c3=O)cc(Cl)cc2[nH]1 [8f, 6-chloro-4-(2-(2-(2,4-dioxo-3,4-dihydropyrimidin-1(2H)-yl)ethoxy)phenoxy)-1H-indole-2-carbonitrile] | 81 µM | 
Cc1cc2c(Oc3ccccc3OCCn3ccc(=O)[nH]c3=O)cccn2c1 [10a, 1-(2-(2-((2-methylindolizin-8-yl)oxy)phenoxy)ethyl)pyrimidine-2,4(1H,3H)-dione] | 9 µM | 
Cc1cc(Oc2ccccc2OCCn2ccc(=O)[nH]c2=O)c2cc(C#N)cn2c1 [10c, 8-(2-(2-(2,4-dioxo-3,4-dihydropyrimidin-1(2H)-yl)ethoxy)phenoxy)-6-methylindolizine-2-carbonitrile] | 3 µM | 
N#Cc1cc2c(Oc3ccccc3OCCn3ccc(=O)[nH]c3=O)cc(F)cn2c1 [10d, 8-(2-(2-(2,4-dioxo-3,4-dihydropyrimidin-1(2H)-yl)ethoxy)phenoxy)-6-fluoroindolizine-2-carbonitrile] |  | 40 µM
N#Cc1cc2c(Oc3ccc(F)cc3OCCn3ccc(=O)[nH]c3=O)cc(Cl)cn2c1 [10i, 6-chloro-8-(2-(2-(2,4-dioxo-3,4-dihydropyrimidin-1(2H)-yl)ethoxy)-4-fluorophenoxy)indolizine-2-carbonitrile] |  | 15 µM
N#Cc1cc2c(Oc3cc(F)ccc3OCCn3ccc(=O)[nH]c3=O)cccn2c1 [10j, 8-(2-(2-(2,4-dioxo-3,4-dihydropyrimidin-1(2H)-yl)ethoxy)-5-fluorophenoxy)indolizine-2-carbonitrile] | 35 µM | 
N#Cc1cc2c(Oc3cc(F)c(F)cc3OCCn3ccc(=O)[nH]c3=O)cccn2c1 [10k, 8-(2-(2-(2,4-dioxo-3,4-dihydropyrimidin-1(2H)-yl)ethoxy)-4,5-difluorophenoxy)indolizine-2-carbonitrile] | 19 µM | 
N#Cc1cc2c(Oc3cc(F)c(F)cc3OCCn3ccc(=O)[nH]c3=O)cc(F)cn2c1 [10l, 8-(2-(2-(2,4-dioxo-3,4-dihydropyrimidin-1(2H)-yl)ethoxy)-4,5-difluorophenoxy)-6-fluoroindolizine-2-carbonitrile] | 54 µM | 
N#Cc1cc2c(Oc3ccc(Cl)cc3OCCn3ccc(=O)[nH]c3=O)cccn2c1 [10m, 8-(4-chloro-2-(2-(2,4-dioxo-3,4-dihydropyrimidin-1(2H)-yl)ethoxy)phenoxy)indolizine-2-carbonitrile] | 55 µM | 
N#Cc1cc2c(Oc3ccc(Cl)cc3OCCn3ccc(=O)[nH]c3=O)cc(Cl)cn2c1 [10n, 6-chloro-8-(4-chloro-2-(2-(2,4-dioxo-3,4-dihydropyrimidin-1(2H)-yl)ethoxy)phenoxy)indolizine-2-carbonitrile] | 20 µM | 
Cc1cc(Oc2ccccc2OCCn2ccc(=O)[nH]c2=O)c2cc(C#N)oc2c1 [12b, 4-(2-(2-(2,4-dioxo-3,4-dihydropyrimidin-1(2H)-yl)ethoxy)phenoxy)-6-methylbenzofuran-2-carbonitrile] | > 100 µM | 
Cc1cc(Oc2ccc(F)cc2OCCn2ccc(=O)[nH]c2=O)c2cc(C#N)oc2c1 [12e, 4-(2-(2-(2,4-dioxo-3,4-dihydropyrimidin-1(2H)-yl)ethoxy)-4-fluorophenoxy)-6-methylbenzofuran-2-carbonitrile] | > 100 µM | 
O=c1ccn(CCOc2cc(Cl)ccc2Oc2cccc3occc23)c(=O)[nH]1 [12f, 1-(2-(2-(benzofuran-4-yloxy)-5-chlorophenoxy)ethyl)pyrimidine-2,4(1H,3H)-dione] | 19 µM | 
Cc1cc2c(Oc3ccc(Cl)cc3OCCn3ccc(=O)[nH]c3=O)cccc2o1 [12g, 1-(2-(5-chloro-2-((2-methylbenzofuran-4-yl)oxy)phenoxy)ethyl)pyrimidine-2,4(1H,3H)-dione] | 8 µM | 
N#Cc1cc2c(Oc3ccc(Cl)cc3OCCn3ccc(=O)[nH]c3=O)cccc2o1 [12h, 4-(4-chloro-2-(2-(2,4-dioxo-3,4-dihydropyrimidin-1(2H)-yl)ethoxy)phenoxy)benzofuran-2-carbonitrile] | 7 µM | 
O=c1ccn(CCOc2cc(Cl)ccc2Oc2cccc3ccoc23)c(=O)[nH]1 [13a, 1-(2-(2-(benzofuran-7-yloxy)-5-chlorophenoxy)ethyl)pyrimidine-2,4(1H,3H)-dione] | 50 µM | 
Cc1ccc2c(Oc3ccccc3OCCn3ccc(=O)[nH]c3=O)cccc2c1 [14b, 1-(2-(2-((6-methylnaphthalen-1-yl)oxy)phenoxy)ethyl)pyrimidine-2,4(1H,3H)-dione] |  | 40 µM
O=c1ccn(CCOc2ccccc2Oc2cccc3cc(Cl)ccc23)c(=O)[nH]1 [14c, 1-(2-(2-((6-chloronaphthalen-1-yl)oxy)phenoxy)ethyl)pyrimidine-2,4(1H,3H)-dione] |  | > 100 µM
O=c1ccn(CCOc2ccccc2Oc2cc(Cl)cc3cc(Cl)ccc23)c(=O)[nH]1 [14d, 1-(2-(2-((3,6-dichloronaphthalen-1-yl)oxy)phenoxy)ethyl)pyrimidine-2,4(1H,3H)-dione] |  | 45 µM
N#Cc1ccc2c(Oc3ccccc3OCCn3ccc(=O)[nH]c3=O)cc(Cl)cc2c1 [14f, 7-chloro-5-(2-(2-(2,4-dioxo-3,4-dihydropyrimidin-1(2H)-yl)ethoxy)phenoxy)-2-naphthonitrile] |  | 24 µM
N#Cc1ccc2c(Oc3ccc(F)cc3OCCn3ccc(=O)[nH]c3=O)cc(Cl)cc2c1 [14g, 7-chloro-5-(2-(2-(2,4-dioxo-3,4-dihydropyrimidin-1(2H)-yl)ethoxy)-4-fluorophenoxy)-2-naphthonitrile] |  | 16 µM
N#Cc1ccc2c(Oc3ccc(Cl)cc3OCCn3ccc(=O)[nH]c3=O)cc(Cl)cc2c1 [14h, 7-chloro-5-(4-chloro-2-(2-(2,4-dioxo-3,4-dihydropyrimidin-1(2H)-yl)ethoxy)phenoxy)-2-naphthonitrile] |  | 20 µM
N#Cc1ccc2c(Oc3ccc(Cl)cc3OCCn3ccc(=O)[nH]c3=O)cccc2c1 [14j, 5-(4-chloro-2-(2-(2,4-dioxo-3,4-dihydropyrimidin-1(2H)-yl)ethoxy)phenoxy)-2-naphthonitrile] |  | > 100 µM
N#Cc1ccc2c(Oc3ccc(Cl)cc3OCCn3ccc(=O)[nH]c3=O)cc(F)cc2c1 [14m, 5-(4-chloro-2-(2-(2,4-dioxo-3,4-dihydropyrimidin-1(2H)-yl)ethoxy)phenoxy)-7-fluoro-2-naphthonitrile] |  | 18 µM

From patent US9382245B2, “Compounds and methods for treating HIV infections” (priority 2013, dated 2016)
